Experimental data as given in ChEMBL document CHEMBL1629458, “Synthesis of phosphatidylinositol 3-kinase (PI3K) inhibitory analogues of the sponge meroterpenoid liphagal” (J Med Chem, 2010).

How the values were obtained:
[1] = target: Phosphatidylinositol 4,5-bisphosphate 3-kinase catalytic subunit gamma isoform (Homo sapiens, UniProt P48736); test: Inhibition of human PI3Kgamma expressed in Sf9 cells by fluorescent polarization assay
[2] = target: Phosphatidylinositol 4,5-bisphosphate 3-kinase catalytic subunit alpha isoform (Homo sapiens, UniProt P42336); test: Inhibition of human PI3Kalpha expressed in Sf9 cells by fluorescent polarization assay
Homo sapiens = organism: Homo sapiens; test: Selectivity for human PI3Kalpha over human PI3Kgamma

Sequence of Phosphatidylinositol 4,5-bisphosphate 3-kinase catalytic subunit alpha isoform (P42336 whole entry, canonical isoform): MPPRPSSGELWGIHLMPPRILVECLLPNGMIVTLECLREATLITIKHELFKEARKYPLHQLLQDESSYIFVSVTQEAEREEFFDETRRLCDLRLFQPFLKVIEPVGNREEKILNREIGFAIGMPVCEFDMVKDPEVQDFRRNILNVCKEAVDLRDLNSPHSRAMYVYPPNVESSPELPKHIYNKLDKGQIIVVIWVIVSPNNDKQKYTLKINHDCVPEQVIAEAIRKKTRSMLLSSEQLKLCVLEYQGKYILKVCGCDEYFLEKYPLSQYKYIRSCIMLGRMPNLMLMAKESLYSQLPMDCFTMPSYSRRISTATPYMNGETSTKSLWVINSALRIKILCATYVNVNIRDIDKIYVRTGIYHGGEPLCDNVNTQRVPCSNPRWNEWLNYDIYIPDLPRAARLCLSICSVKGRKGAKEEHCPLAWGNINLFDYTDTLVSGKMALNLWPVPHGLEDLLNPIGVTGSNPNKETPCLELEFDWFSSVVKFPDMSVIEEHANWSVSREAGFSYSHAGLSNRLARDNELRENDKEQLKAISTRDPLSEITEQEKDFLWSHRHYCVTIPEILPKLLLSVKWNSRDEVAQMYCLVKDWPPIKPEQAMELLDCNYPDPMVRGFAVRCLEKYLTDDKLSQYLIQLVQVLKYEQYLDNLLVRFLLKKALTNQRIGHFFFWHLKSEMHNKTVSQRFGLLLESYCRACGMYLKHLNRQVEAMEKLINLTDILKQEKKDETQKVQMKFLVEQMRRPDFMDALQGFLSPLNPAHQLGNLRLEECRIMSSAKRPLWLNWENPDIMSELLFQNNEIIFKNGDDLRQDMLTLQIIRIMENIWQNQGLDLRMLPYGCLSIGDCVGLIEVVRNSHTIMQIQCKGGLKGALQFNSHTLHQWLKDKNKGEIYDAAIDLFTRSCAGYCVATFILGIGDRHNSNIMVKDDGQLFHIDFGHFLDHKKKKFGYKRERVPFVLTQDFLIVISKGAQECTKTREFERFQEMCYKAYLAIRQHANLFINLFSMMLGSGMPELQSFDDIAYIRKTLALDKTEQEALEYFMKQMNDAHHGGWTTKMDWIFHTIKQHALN
Sequence of Phosphatidylinositol 4,5-bisphosphate 3-kinase catalytic subunit gamma isoform (P48736 whole entry, canonical isoform): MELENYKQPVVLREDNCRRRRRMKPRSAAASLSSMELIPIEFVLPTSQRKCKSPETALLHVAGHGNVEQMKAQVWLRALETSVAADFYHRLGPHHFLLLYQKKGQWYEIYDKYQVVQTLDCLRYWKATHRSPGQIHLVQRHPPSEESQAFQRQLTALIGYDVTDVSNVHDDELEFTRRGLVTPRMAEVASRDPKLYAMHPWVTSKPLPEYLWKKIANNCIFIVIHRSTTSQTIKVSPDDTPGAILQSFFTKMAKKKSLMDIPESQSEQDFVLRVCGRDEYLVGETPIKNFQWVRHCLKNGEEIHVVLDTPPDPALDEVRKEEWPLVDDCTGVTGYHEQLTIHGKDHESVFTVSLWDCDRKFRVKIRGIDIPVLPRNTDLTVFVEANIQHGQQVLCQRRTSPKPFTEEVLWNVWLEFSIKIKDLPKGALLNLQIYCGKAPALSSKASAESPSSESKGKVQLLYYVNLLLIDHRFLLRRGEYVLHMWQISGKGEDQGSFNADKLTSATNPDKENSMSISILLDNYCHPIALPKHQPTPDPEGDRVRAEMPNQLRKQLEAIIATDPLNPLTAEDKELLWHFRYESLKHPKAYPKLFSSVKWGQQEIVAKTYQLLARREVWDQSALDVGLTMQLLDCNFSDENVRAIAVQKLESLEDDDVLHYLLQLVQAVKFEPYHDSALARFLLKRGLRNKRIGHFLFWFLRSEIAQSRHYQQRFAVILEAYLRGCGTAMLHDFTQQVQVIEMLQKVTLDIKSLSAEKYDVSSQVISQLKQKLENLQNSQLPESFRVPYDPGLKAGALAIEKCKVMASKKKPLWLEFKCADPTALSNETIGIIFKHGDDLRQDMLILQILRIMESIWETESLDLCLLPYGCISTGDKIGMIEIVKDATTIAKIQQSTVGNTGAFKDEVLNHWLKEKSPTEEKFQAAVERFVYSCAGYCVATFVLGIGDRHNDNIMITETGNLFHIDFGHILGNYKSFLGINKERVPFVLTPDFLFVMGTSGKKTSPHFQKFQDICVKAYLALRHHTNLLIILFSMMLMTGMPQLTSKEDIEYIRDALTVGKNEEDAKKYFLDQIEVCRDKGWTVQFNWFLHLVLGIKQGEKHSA

IC50 [1] | IC50 [2] | Ratio IC50 (Homo sapiens) | SMILES
> 10000 nM | > 10000 nM |  | C[C@@H]1CC[C@H]2C(C)(C)CCC[C@]2(C)c2c1oc1cc(O)ccc21
1900 nM | 7200 nM |  | C[C@@H]1CC[C@H]2C(C)(C)CCC[C@]2(C)c2c1oc1ccc(O)cc21
9570 nM | 1650 nM |  | CC1(C)CCC[C@]2(C)C3=C4C=C(O)C(=O)C=C4OC3(O)CC[C@@H]12 (mixture of isomers)
> 10000 nM | > 10000 nM |  | COc1ccc2c3c(oc2c1Br)[C@H](C)CC[C@H]1C(C)(C)CCC[C@]31C
2200 nM | 2200 nM |  | C[C@H]1CC[C@H]2C(C)(C)CCC[C@]2(C)c2c1oc1cc(O)ccc21
5300 nM | 700 nM | 7 | C[C@@H]1CCCC(C)(C)C12CC[C@H](C)c1oc3c(Br)c(O)c(O)cc3c12 (mixture of isomers)
5700 nM | 10200 nM |  | C[C@@H]1CC[C@H]2C(C)(C)CCC[C@]2(C)c2c1oc1c(Br)c(O)ccc21
5150 nM | 1000 nM |  | COc1cc2c3c(oc2c(C=O)c1O)CC[C@H]1C(C)(C)CCC[C@]31C (racemic)
> 10000 nM | 3300 nM |  | C[C@@H]1CC[C@H]2C(C)(C)CCC[C@]2(C)C2=C3C=C(O)C(=O)C(Br)=C3OC21O (stereo partly drawn)
1400 nM | 700 nM |  | CC1(C)CCC[C@]2(C)c3c(oc4c(C(N)=O)c(O)c(O)cc34)CC[C@@H]12 (racemic)
2640 nM | 5120 nM |  | COc1cc2c3c(oc2c(C=O)c1OC)CC[C@H]1C(C)(C)CCC[C@]31C (racemic)
1800 nM | 66 nM | 27 | CC1(C)CCC[C@]2(C)c3c(oc4c(C=O)c(O)c(O)cc34)CC[C@@H]12 (racemic)

SMILES | IC50 [1] | IC50 [2] | Ratio IC50 (Homo sapiens)
C[C@@H]1CC[C@H]2C(C)(C)CCC[C@]2(C)c2c1oc1c(C=O)c(O)c(O)cc21 | 1000 nM | 100 nM | 
